Data: the METLIN SMRT retention time set (Domingo-Almenara et al. 2019)

Test: gradient 5% acetonitrile 3 min, to 50% in 2 min, to 85% in 15 min, held 3 min, 100 µL/min
Details: column: Zorbax Extend-C18 2.1 x 50 mm; eluents: water / acetonitrile, 0.1% formic acid
In short: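 A Zorbax Extend-C18 column (2.1 × 50 mm, 1.8 μm) run at 100 μL/min with water and acetonitrile, both containing 0.1% formic acid, separated mixtures of ~100 pure standards. The HPLC was coupled to a quadrupole time-of-flight mass spectrometer operated in positive and negative ionization mode, with dead and dwell volumes of 40 μL and 900 μL. Each retention time was taken from a computationally picked adduct peak that was then manually inspected.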

RP-LC retention time [s]	Compound
1120	O=C(Nc1ccccc1Cl)N(CCc1cccs1)C1CC1
648	CC(NC(=O)C1CCN(c2cncnc2N2CCCC2)CC1)c1ccc(F)cc1 (centres undefined)
782	O=C(NCCc1csc(-c2cccs2)n1)C1CCN(C(=O)C2CCCC2)CC1
862	Cc1cc(NC(=O)Cn2nc(C(=O)N3CCOCC3)c3ccccc32)ccc1Br
870	Cc1cc(C)c(S(=O)(=O)N2CCn3c(nn(CC4CC4)c3=O)C2)c(C)c1
948	Cc1nc(C2(C)CCN(S(=O)(=O)c3cc(F)ccc3C)CC2)no1
922	Cc1ccc2nc(NC(=O)CSc3nc4c(c(=O)n3-c3ccccc3)SCC4)sc2c1
863	O=C(NCc1ccc2c(c1)OCO2)c1ccc(-c2cccs2)nc1
1110	Cc1ccc(NC(=O)Cn2c(C)nc3c(sc4nc(-c5ccccc5)ccc43)c2=O)cc1F
647	CC1CCN(c2cc(-c3noc(C(=O)N4CCN(C5CCCCC5)CC4)n3)ccn2)CC1
745	O=c1c(NC2CCCCC2)nc2ccncc2n1Cc1ccccc1
891	O=C(Cn1ccn2nc(-c3ccc(F)cc3)c(CO)c2c1=O)Nc1ccc(Br)cc1
715	CCN1CCN(c2ccc(-c3nc(-c4ccc(C)cc4)no3)cn2)CC1
818	Cc1ccccc1N1C(=O)CN(S(C)(=O)=O)CC1(C)C(=O)NCc1ccc(F)cc1 (centres undefined)
654	Cc1noc(C)c1S(=O)(=O)N1CCC(C(C)C(=O)N2CCN(C3CCCCC3)CC2)CC1 (centres undefined)
660	CC(C)Oc1ccc(C(=O)Nc2nc(-c3cccnc3)cs2)cc1
604	O=C(Cc1ccccc1Cl)Nc1cnc(N2CCCC2)nc1
780	CCOC(=O)c1c(C)[nH]c(CCC(=O)NC2CCCC2)c1C
797	CCNC(=O)c1c(-c2cccc(F)c2)noc1C
814	C=CCOc1ccc(S(C)(=O)=O)cc1
1060	Cc1ccc(F)cc1NC(=O)c1cnc(-c2ccc(F)cc2)nc1-c1ccncc1
883	Cc1nc(-c2ccccc2OC2CN(S(=O)(=O)c3cccc4nsnc34)C2)no1

RP-LC retention time [s]	Compound
586	O=C(Cc1cccs1)NCC1CCS(=O)(=O)C1 (centres undefined)
855	Cc1cc2c3ccccc3ncn2n1
741	O=C(NCc1nc(-c2cccc(-c3ccn[nH]3)c2)no1)c1ccccc1
785	CN(Cc1ccoc1)C(=O)Nc1ccccc1
597	Cc1cnn(CC(=O)N2CCCn3ccnc3C2C2CCCC2)c1 (centres undefined)
1170	CCOc1ccccc1-c1noc(Cn2c(=O)n(Cc3ccc(C)cc3)c(=O)c3sccc32)n1
921	CCCc1nnsc1C(=O)NCC(c1cccs1)S(=O)(=O)c1ccc(C)cc1 (centres undefined)
614	CCCCN(CC)CCNC(=O)C1CCCN(c2ncnc3c2nc2n3CCCCC2)C1 (centres undefined)
894	Cc1nc(-c2csc(S(=O)(=O)N3CCCC(C(=O)Nc4ccc5c(c4)OCO5)C3)c2)no1 (centres undefined)
719	CCC(=O)Nc1nc(-c2ccc3c(c2)NC(=O)CO3)c(C)s1
1170	CCc1ccc(-c2noc(CN3C(=O)COc4cc(C)ccc43)n2)cc1
730	O=S(=O)(c1cc(-c2nnc(C3CC3)o2)co1)N1CCOCC1
601	O=C(CSc1nnc(CCc2nc3ccccc3[nH]2)o1)NCCc1ccc(Cl)cc1
651	Cc1c(-c2nnc(C(=O)NCCN(C)C)o2)oc2c(C)cccc12
869	O=C(c1ccc(F)cc1)N1CCN(c2ccc(=O)n(-c3cccc(Cl)c3)n2)CC1
635	CNC(=O)C1CCCN(c2nc3ncn(CC(=O)Nc4ccc(F)cc4F)c(=O)c3s2)C1 (centres undefined)
744	CC(C)n1nnc2cc(C(=O)N(C)CC(=O)Nc3ccc(F)cc3F)ccc21
880	CCOc1ccc(NC(=O)C2CCN(S(=O)(=O)c3ccc4c(c3)NC(=O)C(C)O4)CC2)cc1 (centres undefined)
792	Cc1cccn2cc(-c3cccc(NS(=O)(=O)c4ccc(C(C)(C)C)cc4)c3)nc12
940	COC(=O)c1cc(OC)c(OC)cc1NC(=O)c1c(C)coc1C
660	COCCNC(=O)N1CCCn2nc(-c3ccc(OC)cc3)cc2C1
540	CCOC(=O)N1CCN(C(=S)Nc2ccc3nc(N4CCN(C)CC4)cc(C)c3c2)CC1

RP-LC retention time [s]	Compound
1210	Cc1cccn2c(NCc3ccccc3)c(-c3ccccc3OC(=O)C(C)Cl)nc12 (centres undefined)
664	CC(C)CN1CCN(C(=O)c2cc3c(s2)CCN(C(=O)c2ccc(Cl)cc2)C3)CC1
795	CCC(C)NC(=O)C1CCN(C2=NS(=O)(=O)C(c3ccc(OC)cc3)=C2C)CC1 (centres undefined)
1200	Cc1sc(C)c(S(=O)(=O)N2CCCCCC2)c1-c1cc(C(F)(F)F)on1
1030	Clc1ccc(-c2nc(NC3CCCCCC3)c3ccccc3n2)cc1
879	O=C(CCc1ccccc1)N1CCC(n2nnc3cc(F)ccc3c2=O)CC1
904	COCCn1nnnc1C1CC2(CCOCC2)C(=O)N1Cc1ccc(Cl)cc1 (centres undefined)
800	Nc1nc(-c2ccccc2)nn1C(=O)C1CC1
760	Cn1c(=O)oc2cc(-c3noc(CNC(=O)Cc4ccccc4)n3)ccc21
924	COc1ccccc1C(=O)Nc1nc(-c2ccc3c(c2)NC(=O)C(C)O3)cs1 (centres undefined)
758	CCC(=O)N1c2ccc(S(=O)(=O)N3CCCCC3)cc2CC1C(=O)NC1CC1 (centres undefined)
650	CCN1CCCC1CNC(=O)c1ccc2nc(Cc3ccccc3)oc2c1 (centres undefined)
1280	CCOc1ccccc1NC(=O)c1c(O)c2cccnc2n(-c2ccc(F)cc2)c1=O
831	Cc1csc(-c2cc(S(=O)(=O)NCC3CCCO3)cn2CC(=O)N2CCCCC2)n1 (centres undefined)
1010	COc1cccc(-c2noc(Cc3nnc(-c4cccc(Br)c4)o3)n2)c1OC
682	O=C(Cn1nc2c(cc1=O)CCCC2)N[C@@H](Cc1ccccc1)C(=O)O
796	CCC(=O)N1CCc2cc(C)c(S(=O)(=O)NC(C)C)cc21
1180	Cc1ccc(Cn2c(C(=O)NCCc3ccccc3)cc3sccc32)cc1
994	O=S(=O)(c1ccc(Cl)cc1)N1CCC(c2nc(-c3cccc(-c4ccn[nH]4)c3)no2)CC1
809	COCCOC1CCN(S(=O)(=O)Cc2ccccc2F)CC1
984	Cc1ccc(NC(=O)N2CCCC(C)(C(=O)NCc3ccccc3C)C2)c(Cl)c1 (centres undefined)
803	Cc1ccc(N2CCC(NC(=O)NC(C)(C)C)C2=O)cc1C (centres undefined)

RP-LC retention time [s]	Compound
904	COCCN1C(=O)Cc2ccccc2C1C(=O)N1CCN(c2ccccc2Cl)CC1 (centres undefined)
787	CC1=C(c2ccc(C)c(C)c2)S(=O)(=O)N=C1N1CCCN(C(=O)NC(C)C)CC1
1210	CCn1c(C(=O)NCc2ccc(Cl)cc2)cc2sccc21
762	COc1ccc(NC(=O)C2CCCN2S(=O)(=O)c2ccc3c(c2)N(C(C)=O)CCO3)cc1 (centres undefined)
673	O=C(NCc1ccccc1)c1ccc2ccnc(N3CCN(C(=O)c4ccco4)CC3)c2c1
924	COc1ccc(CN2CC3(CCN(S(=O)(=O)c4cc(F)ccc4F)CC3)C2=O)cc1
960	CCc1noc(-c2nnn3c2COC(c2ccc(F)cc2)C3)n1 (centres undefined)
802	c1ccc(CC2CCN(Cc3nc(-c4ccc(N5CCCCC5)nc4)no3)CC2)cc1
660	COC(=O)[C@@H]1[C@H]2C[C@@H]3c4[nH]c5ccccc5c4CCN3C[C@@H]2CC[C@@H]1O
763	COc1ccccc1CNC(=O)Cn1ccc2ccc(-c3nnc(C)o3)cc21
917	O=C(c1nnc(-c2ccc(S(=O)(=O)N3CCOCC3)cc2)o1)N1CCc2ccccc2C1
578	COc1ccc(N2C(=O)CC(N3CCC(C(N)=O)CC3)C2=O)c(OC)c1 (centres undefined)
833	O=[N+]([O-])c1ccc(-c2nc(N3CCOCC3)c3ccccc3n2)cc1
756	Cc1ccc2nc(-c3ccc(Cl)cc3)c(Nc3ccc4c(c3)OCO4)n2c1
798	COc1ccc(-c2noc(CN3N=NC4C(=O)N(c5ccc(OC)c(OC)c5)C(=O)C43)n2)cc1OC (centres undefined)
1220	Cc1ccc(-c2cc3c(=O)n(Cc4nc(-c5ccccc5Cl)no4)ncn3n2)c(C)c1
1050	CC1Oc2ccc(-c3csc(NC(=O)CCc4ccccc4)n3)cc2NC1=O (centres undefined)
590	OCC1CN(c2ncccn2)CC12CCN(Cc1ccc(Cl)cc1F)CC2 (centres undefined)
633	O=C(NC1CCS(=O)(=O)C1)C1CCN(C(=O)C2CC(=O)N(c3ccc(F)cc3)C2)CC1 (centres undefined)
727	Cc1cc(C)cc(NS(=O)(=O)c2cc3n(c2)CCN(C)C3=O)c1
747	CCn1ccc2sc(C)c(C(=O)NCC(C)C)c2c1=O

Compound	RP-LC retention time [s]
CCc1nnc(-c2ccc3ccn(CC(=O)N4CCC5(CC4)OCCO5)c3c2)o1	722
CN[C@@H]1C[C@@H](c2ccc(Cl)c(Cl)c2)c2ccccc21	824
